Source: PMC5838106, “Cathelicidin promotes inflammation by enabling binding of self-RNA to cell surface scavenger receptors” (Scientific Reports, 2018)
Where no end group is shown, it is not given here.

Legend:
SR-B1 = molecular target: T1, SR-B1 (Homo sapiens, UniProt Q8WTV0); assay: Immunofluorescence localisation of U1 RNA with SR-B1; assay type: cell-based; settings: NHEKs, 4 °C, 10 minutes with U1 RNA and peptide
T1 construct: endogenous in cells; host or cells: NHEK (primary neonatal human epidermal keratinocytes)
T1 sequence (Q8WTV0 1-509 isoform Q8WTV0-2): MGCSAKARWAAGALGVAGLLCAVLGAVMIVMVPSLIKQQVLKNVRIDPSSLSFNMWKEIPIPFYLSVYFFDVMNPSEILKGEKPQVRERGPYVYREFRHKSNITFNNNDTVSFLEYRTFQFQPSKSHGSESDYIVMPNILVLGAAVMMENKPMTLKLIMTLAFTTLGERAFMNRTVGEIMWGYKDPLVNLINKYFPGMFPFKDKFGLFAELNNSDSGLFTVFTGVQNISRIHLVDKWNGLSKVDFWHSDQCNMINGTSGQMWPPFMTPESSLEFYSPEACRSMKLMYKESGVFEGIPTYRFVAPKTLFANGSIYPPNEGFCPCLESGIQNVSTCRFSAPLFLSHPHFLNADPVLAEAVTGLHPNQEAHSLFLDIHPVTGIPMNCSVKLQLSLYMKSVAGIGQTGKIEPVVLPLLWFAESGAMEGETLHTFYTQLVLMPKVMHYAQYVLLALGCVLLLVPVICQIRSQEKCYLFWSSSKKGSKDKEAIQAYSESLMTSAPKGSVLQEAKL
Procedure: NHEKs were grown on 8-well chamber slides (Thermofisher Scientific). After indicated treatments, cells were fixed in 4% paraformaldehyde (PFA) (Thermofisher Scientific) for 10 minutes and blocked with 3% bovine serum albumin, 0.2 M Glycine (Sigma) with or without 1 mg/mL saponin (Sigma) prior to incubating with primary antibodies followed by appropriate 488- or 568-coupled secondary antibodies, or 488-streptavidin conjugate. Nuclei were counterstained with DAPI. All images were taken with an Olympus BX41 microscope (widefield), Zeiss LSM510 confocal microscope, or Nikon A1R Confocal STORM microscope as indicated.
Figure S3. a) NHEKs cultured at 4 °C for 10 minutes with U1 RNA and cathelicidin peptide. […]
RNA. NHEKs were cultured with various cathelicidin peptides (2.5 µM) for 10 minutes, then with biotinylated U1 RNA (2.5 µg/mL) at 4 °C for 1 hour before physical proximity of SR-A6 and U1 RNA was determined using a fluorescence-based PLA that produces a red fluorescent signal. […] PMA-treated THP1 were cultured with various cathelicidin peptides (3 µM) for 10 minutes, then with biotinylated U1 RNA (2.5 µg/mL) at 4 °C for 1 hour before physical proximity of U1 RNA and scavenger receptors was determined using a fluorescence-based PLA, each count is PLA complexes observed in 5 visual fields. f) NHEKs cultured at 37 °C that were stained immediately after or after 5 […]

NHEKs = assay: U1 RNA co-association with early endosome (EEA1) in NHEKs; assay type: cell-based, human; settings: 37 °C, 4 hours
Source text: Figure 2 Structure and cell binding of cathelicidin and dsRNA. (a) Structures of LL37, LL34, and LL34(I20P) bound to dsRNA were solved using SAXS. SAXS data is plotted as the scattering intensity I(q) vs. the momentum transfer vector q. LL34 (blue) and LL34(I20P) (green) condense dsRNA into square lattices with first peak positions of q10 = 0.167 Å^−1 and 0.170 Å^−1, respectively. Higher order Bragg reflections due to scattering of the square lattice of LL34 and LL34(I20P) are labeled for both complexes. In comparison, LL37 (magenta) condenses dsRNA into a columnar lattice with short-ranged order, with a first peak position of q1 = 0.172 Å^−1. (b) Linear fits of Bragg peak positions indicate that LL34-dsRNA (blue) and LL34(I20P)-dsRNA (green) complexes have inter-dsRNA spacings of 3.76 nm and 3.70 nm, respectively. Each reflection corresponding to the peaks in a for LL34 and LL34(I20P) are labeled. Close overlap of the two linear fits indicate that LL34-dsRNA and LL34(I20P)-dsRNA complexes have similar unit cell structures and inter-dsRNA spacings. End-on views along the dsRNA long-axis of the columnar (c) LL37-dsRNA and (d) LL34-dsRNA or LL34(I20P)-dsRNA complexes are shown. In (d), LL34-dsRNA and LL34(I20P)-dsRNA both form square columnar structures with similar unit cell architectures. […]

Substance	U1 RNA localization with SR-B1 (SR-B1)	co-association of U1 RNA with the early endosome (NHEKs)
LLGDFFRKSKEKIGKEFKRIVQRIKDFLRNLVPR [LL34]	enabled U1 RNA to localize with SR-B1	induced partial co-association with the early endosome
LL37	enabled U1 RNA to localize with SR-B1	induced partial co-association with the early endosome
